From PMC4303209, “A novel phosphatidylinositol 3-kinase (PI3K) inhibitor directs a potent FOXO-dependent, p53-independent cell cycle arrest phenotype characterized by the differential induction of a subset of FOXO-regulated genes” (Breast Cancer Research : BCR, 2014)

Test system: MCF-7 breast cancer cells
Assay: Microarray gene expression analysis (Agilent whole human genome 4 x 44K; compound vs DMSO, LIMMA log2 fold change)
Assay type: cell-based
Settings: cell cycle genes

## Oc1cccc(-c2nc(N3CCOCC3)c3oc4ncccc4c3n2)c1 [PI-103]
Gene 994
  CDC25B log2FC: -0.0551
Gene 995
  CDC25C log2FC: 1.56
Gene 997
  CDC34 log2FC: 0.51
Gene 998
  CDC42 log2FC: 0.08
Gene 1017
  CDK2 log2FC: -0.44
Gene 1018
  CDK3 log2FC: -0.00896
Gene 1019
  CDK4 log2FC: 0.17
Gene 1020
  CDK5 log2FC: 0.18
Gene 1022
  CDK7 log2FC: 0.77
Gene 1026
  CDKN1A log2FC: -1.23
Gene 1027
  CDKN1B log2FC: 1.12
Gene 1028
  CDKN1C log2FC: 0.88
Gene 1029
  CDKN2A log2FC: 0.30
Gene 1032
  CDKN2D log2FC: 0.90
Gene 1033
  CDKN3 log2FC: 0.04
Gene 1058
  CENPA log2FC: 0.29
Gene 1062
  CENPE log2FC: 1.00
Gene 1063
  CENPF log2FC: 1.50
Gene 1069
  CETN2 log2FC: 0.12
Gene 1107
  CHD3 log2FC: -0.15
Gene 1111
  CHEK1 log2FC: 0.38
Gene 1163
  CKS1B log2FC: 0.12
Gene 1164
  CKS2 log2FC: -0.62
Gene 1213
  CLTC log2FC: 0.15
Gene 1263
  PLK3 log2FC: -1.59
Gene 1386
  ATF2 log2FC: 0.88
Gene 1389
  CREBL2 log2FC: 0.85
Gene 1432
  MAPK14 log2FC: -0.30
Gene 1452
  CSNK1A1 log2FC: -0.04
Gene 1453
  CSNK1D log2FC: -0.30
Gene 1454
  CSNK1E log2FC: -0.52
Gene 1457
  CSNK2A1 log2FC: -0.65
Gene 1487
  CTBP1 log2FC: -0.24
Gene 1490
  CTGF log2FC: -0.35
Gene 1540
  CYLD log2FC: 0.38
Gene 1594
  CYP27B1 log2FC: -0.17
Gene 1613
  DAPK3 log2FC: -0.075
Gene 1642
  DDB1 log2FC: 0.26
Gene 1649
  DDIT3 log2FC: 2.08
Gene 1654
  DDX3X log2FC: -1.13
Gene 1718
  DHCR24 log2FC: -0.73
Gene 1719
  DHFR log2FC: 0.49
Gene 1739
  DLG1 log2FC: 0.12
Gene 1761
  DMRT1 log2FC: 0.0553
Gene 1781
  DYNC1I2 log2FC: 0.63
Gene 1785
  DNM2 log2FC: 0.27
Gene 1814
  DRD3 log2FC: -0.0531
Gene 1843
  DUSP1 log2FC: -0.80
Gene 1845
  DUSP3 log2FC: 0.48
Gene 1859
  DYRK1A log2FC: 0.34
Gene 1869
  E2F1 log2FC: -0.12
Gene 1870
  E2F2 log2FC: -0.38
Gene 1871
  E2F3 log2FC: -0.42
Gene 1874
  E2F4 log2FC: -0.66
Gene 1875
  E2F5 log2FC: 0.15
Gene 1876
  E2F6 log2FC: -0.52
Gene 1877
  E4F1 log2FC: 0.31
Gene 1894
  ECT2 log2FC: 0.84
Gene 1908
  EDN3 log2FC: -0.022
Gene 1950
  EGF log2FC: -0.01
Gene 1956
  EGFR log2FC: 0.48
Gene 1978
  EIF4EBP1 log2FC: 0.0433
Gene 1982
  EIF4G2 log2FC: -0.10
Gene 2010
  EMD log2FC: -0.12
Gene 2029
  ENSA log2FC: -0.0565
Gene 2059
  EPS8 log2FC: 0.46
Gene 2068
  ERCC2 log2FC: -0.27
Gene 2071
  ERCC3 log2FC: -0.11
Gene 2072
  ERCC4 log2FC: 0.06
Gene 2077
  ERF log2FC: 0.40
Gene 2079
  ERH log2FC: -0.38
Gene 2081
  ERN1 log2FC: -0.11
Gene 2113
  ETS1 log2FC: -0.82
Gene 2146
  EZH2 log2FC: 0.46
Gene 2189
  FANCG log2FC: 0.0225
Gene 2237
  FEN1 log2FC: -1.06
Gene 2241
  FER log2FC: 0.26
Gene 2247
  FGF2 log2FC: 0.18
Gene 2253
  FGF8 log2FC: -0.13
Gene 2255
  FGF10 log2FC: -0.00185
Gene 2260
  FGFR1 log2FC: -0.37
Gene 2261
  FGFR3 log2FC: -0.16
Gene 2263
  FGFR2 log2FC: 1.81
Gene 2273
  FHL1 log2FC: -0.0644
Gene 2296
  FOXC1 log2FC: -0.77
Gene 2305
  FOXM1 log2FC: -0.022
Gene 2316
  FLNA log2FC: -0.0267
Gene 2342
  FNTB log2FC: -0.45
Gene 2619
  GAS1 log2FC: 0.76
Gene 2620
  GAS2 log2FC: 0.15
Gene 2621
  GAS6 log2FC: -0.10
Gene 2672
  GFI1 log2FC: 0.03
Gene 2770
  GNAI1 log2FC: 1.07
Gene 2771
  GNAI2 log2FC: -0.26
Gene 2773
  GNAI3 log2FC: 0.53
Gene 2810
  SFN log2FC: -1.15
Gene 2827
  GPR3 log2FC: -0.30
Gene 2873
  GPS1 log2FC: 0.025
Gene 2874
  GPS2 log2FC: 0.19
Gene 2932
  GSK3B log2FC: -0.45
Gene 2935
  GSPT1 log2FC: -0.35
Gene 2956
  MSH6 log2FC: -0.0751
Gene 2965
  GTF2H1 log2FC: 0.32
Gene 3014
  H2AFX log2FC: -0.94
Gene 3054
  HCFC1 log2FC: -0.62
Gene 3065
  HDAC1 log2FC: -0.55
Gene 3066
  HDAC2 log2FC: 0.06
Gene 3082
  HGF log2FC: -0.20
Gene 3087
  HHEX log2FC: -0.29
Gene 3169
  FOXA1 log2FC: 0.13
Gene 3209
  HOXA13 log2FC: 0.04
Gene 3265
  HRAS log2FC: -0.76
Gene 3275
  PRMT2 log2FC: 0.29
Gene 3280
  HES1 log2FC: -1.26
Gene 3297
  HSF1 log2FC: 0.25
Gene 3306
  HSPA2 log2FC: -1.30
Gene 3320
  HSP90AA1 log2FC: 0.72
Gene 3398
  ID2 log2FC: 1.14
Gene 3399
  ID3 log2FC: -0.08
Gene 3458
  IFNG log2FC: -0.04
Gene 3479
  IGF1 log2FC: 0.05
Gene 3480
  IGF1R log2FC: 0.08
Gene 3481
  IGF2 log2FC: 0.0241
Gene 3552
  IL1A log2FC: -0.07
Gene 3553
  IL1B log2FC: 0.035
Gene 3576
  IL8 log2FC: -1.30
Gene 3593
  IL12B log2FC: -0.0227
Gene 3609
  ILF3 log2FC: -0.47
Gene 3611
  ILK log2FC: -0.0473
Gene 3619
  INCENP log2FC: 0.13
Gene 3622
  ING2 log2FC: 0.26
Gene 3623
  INHA log2FC: -0.06
Gene 3642
  INSM1 log2FC: -0.06
Gene 3643
  INSR log2FC: 0.74
Gene 3664
  IRF6 log2FC: 0.56
Gene 3688
  ITGB1 log2FC: 0.58
Gene 3725
  JUN log2FC: -0.94
Gene 3726
  JUNB log2FC: -0.65
Gene 3832
  KIF11 log2FC: 0.83
Gene 3875
  KRT18 log2FC: -0.44
Gene 3925
  STMN1 log2FC: 0.33
Gene 3976
  LIF log2FC: -1.84
Gene 3978
  LIG1 log2FC: 0.0377
Gene 3980
  LIG3 log2FC: -0.50
Gene 3993
  LLGL2 log2FC: -0.0661
Gene 4041
  LRP5 log2FC: -0.40
Gene 4085
  MAD2L1 log2FC: -0.14
Gene 4088
  SMAD3 log2FC: 0.24
Gene 4172
  MCM3 log2FC: 0.0559
Gene 4174
  MCM5 log2FC: 0.04
Gene 4176
  MCM7 log2FC: 0.08
Gene 4193
  MDM2 log2FC: -0.11
Gene 4194
  MDM4 log2FC: -0.14
Gene 4218
  RAB8A log2FC: -0.76
Gene 4282
  MIF log2FC: 0.23
Gene 4288
  MKI67 log2FC: 0.06
